These results are taken from ChEMBL document CHEMBL4425146, “Synthesis and biological evaluation of N(9)-substituted harmine derivatives as potential anticancer agents” (Bioorg Med Chem Lett, 2016).

pIC50: −log10 of the molar value.

Assay [1] has as its system A549. Nature of the assay: Induction of apoptosis in human A549 cells assessed as late apoptotic cells at 0.1 uM after 48 hrs by Annexin V-FITC/propidium iodide staining based flow cytometry (reference value: 2.70 %). It counts as functional. In general terms: In flow cytometry, cells or beads pass a laser one at a time.
The subject of assay [2] is A549. Nature of the assay: Cell cycle arrest in human A549 cells assessed as accumulation at G0/G1 phase at 1 uM after 48 hrs by propidium iodide staining based flow cytometry (reference value: 53.54 %). Format: functional.
Assay [3] relates to SGC-7901. Kind of assay: Cytotoxicity against human SGC7901 cells assessed as inhibition of cell growth after 48 hrs by MTT assay. It counts as functional, cell-based. The note with it: SGC-7901, 48 h. Background: Tetrazolium dyes change colour on reduction, which living cells bring about.
Assay [4] deals with A549. Kind of assay: Cell cycle arrest in human A549 cells assessed as accumulation at S phase at 0.1 uM after 48 hrs by propidium iodide staining based flow cytometry (reference value: 30.85 %). It counts as functional.
In assay [5] the test system is A549. Kind of assay: Cell cycle arrest in human A549 cells assessed as accumulation at G0/G1 phase at 0.1 uM after 48 hrs by propidium iodide staining based flow cytometry (reference value: 53.54 %). Format: functional.
In assay [6] the test system is A549. Kind of assay: Cell cycle arrest in human A549 cells assessed as accumulation at S phase at 0.5 uM after 48 hrs by propidium iodide staining based flow cytometry (reference value: 30.85 %). It counts as functional.
For assay [7], the system named is A549. Kind of assay: Cell cycle arrest in human A549 cells assessed as accumulation at sub-G1 phase after 48 hrs by propidium iodide staining based flow cytometry. It counts as functional.
The test system of assay [8] is A549. Nature of the assay: Induction of apoptosis in human A549 cells assessed as viable cells at 0.1 uM after 48 hrs by Annexin V-FITC/propidium iodide staining based flow cytometry (reference value: 96.08 %). It counts as functional. The note with it: A549, 48 h, read-out: Activity.
The test system of assay [9] is SMMC-7721. Nature of the assay: Cytotoxicity against human SMMC7721 cells assessed as inhibition of cell growth after 48 hrs by MTT assay. Format: functional, cell-based. The note with it: SMMC-7721, 48 h.
The test system of assay [10] is A549. Nature of the assay: Induction of apoptosis in human A549 cells assessed as late apoptotic cells at 0.5 uM after 48 hrs by Annexin V-FITC/propidium iodide staining based flow cytometry (reference value: 2.70 %). Format: functional.
Assay [11] deals with A549. Nature of the assay: Cell cycle arrest in human A549 cells assessed as accumulation at G0/G1 phase at 0.5 uM after 48 hrs by propidium iodide staining based flow cytometry (reference value: 53.54 %). It counts as functional.
Assay [12] deals with A549. Kind of assay: Cell cycle arrest in human A549 cells assessed as accumulation at sub-G1 phase at 0.5 uM after 48 hrs by propidium iodide staining based flow cytometry (reference value: 2.78 %). Format: functional.
Assay [13] deals with A549. Nature of the assay: Cell cycle arrest in human A549 cells assessed as accumulation at sub-G1 phase at 1 uM after 48 hrs by propidium iodide staining based flow cytometry (reference value: 2.78 %). It counts as functional.
In assay [14] the test system is A549. Kind of assay: Cell cycle arrest in human A549 cells assessed as accumulation at G2/M phase after 48 hrs by propidium iodide staining based flow cytometry. Format: functional.
The test system of assay [15] is A549. Kind of assay: Induction of apoptosis in human A549 cells assessed as viable cells at 1 uM after 48 hrs by Annexin V-FITC/propidium iodide staining based flow cytometry (reference value: 96.08 %). Format: functional. The note with it: A549, 48 h, read-out: Activity.
Assay [16] has as its system A549. Kind of assay: Induction of apoptosis in human A549 cells assessed as late apoptotic cells at 1 uM after 48 hrs by Annexin V-FITC/propidium iodide staining based flow cytometry (reference value: 2.70 %). Format: functional.
The test system of assay [17] is A549. Nature of the assay: Induction of apoptosis in human A549 cells assessed as viable cells at 0.5 uM after 48 hrs by Annexin V-FITC/propidium iodide staining based flow cytometry (reference value: 96.08 %). Format: functional. The note with it: A549, 48 h, read-out: Activity.
Assay [18] relates to A549. Kind of assay: Cell cycle arrest in human A549 cells assessed as accumulation at G2/M phase at 1 uM after 48 hrs by propidium iodide staining based flow cytometry (reference value: 14.62%). It counts as functional.
Assay [19] deals with A549. Kind of assay: Cell cycle arrest in human A549 cells assessed as accumulation at sub-G1 phase at 0.1 uM after 48 hrs by propidium iodide staining based flow cytometry (reference value: 2.78 %). It counts as functional.
The test system of assay [20] is A549. Nature of the assay: Induction of apoptosis in human A549 cells after 48 hrs by Annexin V-FITC/propidium iodide staining based flow cytometry. It counts as functional, cell-based.
Assay [21] deals with A549. Kind of assay: Induction of apoptosis in human A549 cells assessed as early apoptotic cells at 0.1 uM after 48 hrs by Annexin V-FITC/propidium iodide staining based flow cytometry (reference value: 0.57 %). It counts as functional.
Assay [22] deals with A549. Nature of the assay: Cell cycle arrest in human A549 cells assessed as accumulation at G2/M phase at 0.5 uM after 48 hrs by propidium iodide staining based flow cytometry (reference value: 14.62%). Format: functional.
Assay [23] deals with A549. Kind of assay: Cell cycle arrest in human A549 cells assessed as accumulation at S phase at 1 uM after 48 hrs by propidium iodide staining based flow cytometry (reference value: 30.85 %). Format: functional.
Assay [24] relates to A549. Nature of the assay: Induction of apoptosis in human A549 cells assessed as early apoptotic cells at 0.5 uM after 48 hrs by Annexin V-FITC/propidium iodide staining based flow cytometry (reference value: 0.57 %). It counts as functional.
For assay [25], the system named is A549. Nature of the assay: Cell cycle arrest in human A549 cells assessed as accumulation at G2/M phase at 0.1 uM after 48 hrs by propidium iodide staining based flow cytometry (reference value: 14.62%). Format: functional.
For assay [26], the system named is A549. Kind of assay: Induction of apoptosis in human A549 cells assessed as early apoptotic cells at 1 uM after 48 hrs by Annexin V-FITC/propidium iodide staining based flow cytometry (reference value: 0.57 %). Format: functional.
Assay [27] has as its system MCF7. Nature of the assay: Cytotoxicity against human MCF7 cells assessed as inhibition of cell growth after 48 hrs by MTT assay. Format: functional, cell-based. The note with it: MCF7, 48 h.
The test system of assay [28] is A549. Kind of assay: Cytotoxicity against human A549 cells assessed as inhibition of cell growth after 48 hrs by MTT assay. The note with it: A549, 48 h. Format: functional, cell-based.
Assay [29] deals with COLO 205. Kind of assay: Cytotoxicity against human COLO205 cells assessed as inhibition of cell growth after 48 hrs by MTT assay. It counts as functional, cell-based. Particulars: COLO 205, 48 h.
In assay [30] the test system is HL-60. Kind of assay: Cytotoxicity against human HL60 cells assessed as inhibition of cell growth after 48 hrs by MTT assay. Particulars: HL-60, 48 h. It counts as functional, cell-based.

The term pIC50 denotes the negative decadic logarithm of the IC50, by convention in mol/L. With `COc1ccc2c3ccnc(C)c3n(S(=O)(=O)c3ccc(C)cc3)c2c1`, the Activity in assay [1] is 18.76%; in assay [2] it was 36.46%; in [4], 30.27%; in assay [5], 53.31%; in assay [6], 31.93%; in assay [7], “Dose-dependent effect”. For the same molecule, the Activity in assay [10] is 42.79%; in assay [11], 36.99%; in [12], 21.15%; in [13], 24.88%; in assay [14] it was “Dose-dependent effect”; in assay [16], 54.11%. The Activity was 36.64% in assay [18]; 8.63% in assay [19]; “Dose-dependent effect” in [20]; 2.68% in assay [21]; 31.09% in assay [22]; 25.9% in assay [23]. Moreover, the Activity in assay [24] amounted to 11.5%; in [25], 16.42%; in assay [26] it was 17.59%. In addition, the pIC50 in assay [3] was 5.81; in assay [9] it was below 4.30; in assay [27], below 4.30; in assay [28], 6.32. For the same molecule, the viability at 0.1 µM in assay [8] came out at 73.1%. For the same molecule, the viability at 1 µM in assay [15] is 28.2%. Moreover, the viability at 0.5 µM in assay [17] came to 45%.

With `COc1ccc2c3ccnc(C)c3n(Cc3ccccc3C)c2c1`, the pIC50 in assay [3] is 4.76; in [9], 4.40; in assay [27], below 4.30; in [28] it was 5.08.

On to `CCCCCCCCn1c2cc(OC)ccc2c2ccnc(C)c21`, for which the pIC50 in assay [3] is 5.18; in [9], 5.16; in assay [27], below 4.30; in assay [28] it was 5.32.

With `COc1ccc2c3ccnc(C)c3n(CCCCCBr)c2c1`, the pIC50 in assay [3] is 5.03; in assay [9], 5.19; in assay [27] it was 6.12; in assay [28] it was 5.32.

Turning to `COc1ccc2c3ccnc(C)c3n(C(C)=O)c2c1`, the pIC50 in assay [3] was 5.19; in [9], below 4.30; in [27] it was below 4.30; in assay [28], 5.90.

On to `COc1ccc2c3ccnc(C)c3n(CCCCBr)c2c1`, for which the pIC50 in assay [3] is 4.97; in assay [9], 5.08; in assay [27], 6.07; in assay [28], 4.91.

As for `COc1ccc2c3ccnc(C)c3n(CCCCCl)c2c1`, the pIC50 was 5.14 in assay [3], 4.75 in assay [9], 5.53 in assay [27] and 5.06 in [28].

Consider `CCCCn1c2cc(OC)ccc2c2ccnc(C)c21`, for which the pIC50 in assay [3] was 4.95; in assay [9] it was 4.54; in assay [27], below 4.30; in assay [28], 5.22.

As for `COc1ccc2c3ccnc(C)c3n(Cc3cc(F)cc(F)c3)c2c1`, the pIC50 is 5.19 in assay [3], below 4.30 in assay [9], below 4.30 in [27] and 4.74 in assay [28].

For `CCCCCCn1c2cc(OC)ccc2c2ccnc(C)c21`, the pIC50 in [3] is 4.88; in assay [9], 4.84; in assay [27], below 4.30; in [28], 5.31.

Regarding `COc1cc(Cn2c3ccc(C(C)=O)cc3c3ccnc(C)c32)cc(OC)c1OC`, the pIC50 in [29] was 6.28; in assay [30], 7.52.

For the molecule `COc1cccc2c1C(=O)c1c(O)c3c(c(O)c1C2=O)C[C@@](O)(C(=O)CO)C[C@@H]3O[C@H]1C[C@H](N)[C@H](O)[C@H](C)O1` [DOXORUBICIN], the pIC50 was 5.86 in [9], 6.08 in assay [27] and 6.12 in assay [28].

As to `COc1ccc2c3ccnc(C)c3n(S(=O)(=O)c3ccccc3)c2c1`, the pIC50 in assay [3] was 5.23; in [9] it was below 4.30; in [27] it was below 4.30; in assay [28], 6.08.

Turning to `CCn1c2cc(OC)ccc2c2ccnc(C)c21`, the pIC50 in assay [3] was 4.53; in [9], 4.62; in assay [27], below 4.30; in assay [28] it was 4.58.
